Consider 24 compounds from PMC2787016 (PLoS Pathogens, 2009).

Where a SMILES comes first, the peptide text is derived from it. Where no end group is shown, it is not given here. Where only a bound is given, the exact number is not on record here.

The first assay addresses HLA-A*0201 (Homo sapiens, UniProt P04439, D140Y/D185E/D98H/E176V/E277Q/G131W/G231S/I119V/I121R/I166T/I218V/L300P/L318F/N151K/N90K/P208A/P217A/Q86G/Q94H/R138H/R169H/T345S). In words: biochemical. The format is binding.
Usually IC50 stands for the concentration that inhibits the measured activity by half. AMPGVLSYV [MACV NP432–440] came in with an IC50 of 8.4 nM.

LLPDALLFTL [SABV NP547–556] returned an IC50 of 77 nM.

The compound `CC(C)C[C@H](NC(=O)[C@H](CC(C)C)NC(=O)[C@H](CC(N)=O)NC(=O)[C@H](CC(C)C)NC(=O)[C@H](CS)NC(=O)[C@H](Cc1c[nH]cn1)NC(=O)[C@H](CCCNC(=N)N)NC(=O)[C@H](CS)NC(=O)[C@H](CC(C)C)NC(=O)[C@@H](N)Cc1ccc(O)cc1)C(=O)O` [LCMV Z49–58] (H-YLCRHCLNLL-OH) registered an IC50 of 3.9 nM.

On to ALNIALIAV [WWAV GPC18–26], for which the IC50 amounted to 27 nM.

Take GLLEWIFRA [SABV GPC142–150]: the half-maximal inhibitory concentration (IC50) was 1.2 nM.

AVYNFATCGI [LCMV GPC34–43] registered an IC50 of 137 nM.

Take GLSQFTQTV [JUNV NP19–27]: the midpoint of inhibition, the IC50, lay at 30 nM.

GLSQFTHTV [MACV NP19–27] registered an IC50 of 18 nM.

Turning to TVIKTLLEV [WWAV NP274–282], the IC50 was determined as 276 nM.

GLLQFIVFL [WWAV GPC42–50]: the IC50 was below 0.05 nM.

Turning to ALNIALVAV [JUNV GPC18–26], the midpoint of inhibition, the IC50, lay at 79 nM.

In turn, AINIALIAV [SABV GPC18–26] showed a half-inhibitory concentration (IC50) of 834 nM.

SIINHKFCNL [LASV GPC111–120] gave an IC50 of 2120 nM.

Another assay has as its system peptide-pulsed JA2.1 cells.
Experiment: not given
Format: cell-based, HLA-A*0201 transgenic mice.
Turning to GLLQFIVFL [WWAV GPC42–50], the “Identified as CD8+ T cell epitope after rVACV infection” value is “identified”.

Another assay concerns human JA2.1 cells infected with the appropriate rVACV.
Experiment: not given
The format is cell-based, HLA-A*0201 transgenic mice. Also on record: key to Natural processing in human APCs: +, Processed; +/−, weakly processed; −, not processed.
Turning to GLLQFIVFL [WWAV GPC42–50], the “Natural processing in human APCs” value is listed as “+” and the “Recognition of rVACV-infected human target cells by peptide-primed CD8+ T cells” value is reported as “robust”.

The next assay concerns the target HLA-A*1101 (Homo sapiens, UniProt P04439, A114D/D185E/E176A/F33Y/L180Q/S129P/T187R). In words: biochemical. Format: binding.
Compound LVSFLLLAGR [LCMV GPC46–55] displayed a concentration for half-maximal inhibition (IC50) of 70 nM.

Take SIQKNTIFK [MACV NP82–90]: half-maximal inhibition (IC50) required 5.5 nM.

Compound FTNDSIISH [LCMV GPC112–120] registered an IC50 of 38 nM.

Regarding RTAPPSLYGR [MACV Z27–36], the IC50 stood at 8.9 nM.

STYYVHENK [SABV GPC90–98]: the IC50 came to 6 nM.

SSIIRSLPK [WWAV NP439–447] gave an IC50 of 2.5 nM.

The compound KCLNIMLGK [SABV Z64–72] registered a concentration for half-maximal inhibition (IC50) of 678 nM.

SSQRDTILK [SABV NP82–90] yielded an IC50 of 9.3 nM.

The compound TTYLGPLSCK [LCMV Z24–33] yielded an IC50 of 2.8 nM.

For the compound ATVKNVVLR [GTOV L1977–1985], the IC50 worked out at 54 nM.

LVTFLLLCGR [LASV GPC46–55]: the IC50 is above 5000 nM.

In another assay the test system is HLA-restricted target cells pulsed with peptide.
Experiment: not given
The format is cell-based, HLA-A*1101 transgenic mice.
Consider LVTFLLLCGR [LASV GPC46–55], for which the “% of Epitope response” value stood at 147%.
